Laboratory results reported in patent US20220186063A1, “BEVERAGE STRAW COATED WITH AN ACTIVE COMPOUND AND METHOD OF MANUFACTURING” (priority 2020, published 2022).

Experiment: Release of THC from straw coating as water is drawn through the straw (Example 5)
Format: physicochemical
Conditions: after 220 ml of water passes through the straw over 30 minutes; composite of six straws
Experimental: A study was performed to determine how long it takes for […] to be released from the coating as a liquid is drawn through the coated straw, and to determine how much liquid is required to achieve the full dose of the active ingredient.
The volume of dispersion required to achieve a 10 mg dose of THC was calculated. A pipette was calibrated to ensure that it dispenses the correct amount of dispersion to achieve the desired dose, and then it was loaded with the appropriate amount of the dispersion.
The calculated amount of dispersion was injected using the pipette into PFTA sugarcane straws. The dispersion was allowed to gradually coat the inside of each straw by arranging them vertically. Care was taken to not allow the dispersion to come out of the bottom of the straws.
Straws were dried by taping them horizontally to a tray using food-grade mylar and placing the tray into a convection oven at 55° C. for approximately 60 minutes or until dispersion was visibly dry. Straws were checked every 30 minutes. Once the straws were dry, they were removed from the oven and allowed to cool.
For each straw, a syringe was affixed to the end of a prepared coated straw. The opposing end of the straw was placed in a beaker of deionized water. […]

## CCCCCc1cc(O)c2c(c1)OC(C)(C)[C@@H]1CCC(C)=C[C@@H]21 [THC, (6aR,10aR)-6,6,9-trimethyl-3-pentyl-6a,7,8,10a-tetrahydro-6H-benzo[c]chromen-1-ol]
  THC released from the coating: approximately 60%
